Counter-ions that a name gives are not always drawn.
How the values were obtained:
SMYD3 [1] = target: T1, SMYD3 (Homo sapiens (Human), UniProt Q9H7B4); test: SMYD3 cell assay (Trimethyl-MEKK2 In-Cell Western in 293T/17 cells transfected with MEKK2-flag and SMYD3); type: cell-based
Excerpt: Trimethyl-MEKK2-in-Cell Western Assay
MEM/Glutamax medium, Optimem Reduced Serum medium, penicillin-streptomycin, 0.05% trypsin and 1×D-PBS were purchased from Life Technologies, Grand Island, N.Y., USA. PBS-10× was purchased from Ambion, Life Technologies, Grand Island, N.Y., USA. PBS with Tween 20 (PBST (10×)) was purchased from KPL, Gaithersburg, Md., USA. Tet System FBS-approved FBS US Source was purchased from Clontech, Mountain View, Calif., USA. Odyssey blocking buffer, 800CW goat anti-rabbit IgG (H+L) antibody, 680CW Goat anti-mouse IgG (H+L) and Licor Odyssey infrared scanner were purchased from Licor Biosciences, Lincoln, Nebr., USA. Tri-methyl-Lysine [A260]-MEKK2 antibody, MEKK2 and SMYD3 plasmids were made at Epizyme. Anti-flag monoclonal mouse antibody was purchased from Sigma, St. Louis, Mo., USA. Methanol was purchased from VWR, Franklin, Mass., USA. 10% Tween 20 was purchased from KPL, Inc., Gaithersburg, Md., USA. Fugene was purchased from Promega, Madison, Wis., USA. The Biotek ELx405 was purchased from BioTek, Winooski, Vt., USA. The multidrop combi was purchased from Thermo Scientific, Waltham, Mass., USA.
Cell Treatment, in Cell Western (ICW) for Detection of Trimethyl-Lysine-MEKK2 and MEKK2.
Plasmids were prepared for delivery to cells by first mixing 1350 μL Opti-MEM with Fugene (81 μL) in a sterile Eppendorf and incubated for five minutes at room temperature (RT). […] Entire volume of Opti-MEM/Fugene mixture was then added to a microfuge tube containing DNA plasmid, mixed and then incubated ×15 minutes at RT. […] Medium was then removed, and cells were washed once with PBS in the flask. Trypsin 0.05% (3 mL) was added and cells incubated for three minutes. Room temperature MEM+10% Tet system FBS was added and cells were mixed gently, and counted using the Vi-cell. Cells were seeded at 100,000 cells/mL in 50 μL MEM/10% Tet FBS/Pen/Strep to a 384 well black/clear poly-D-lysine coated plate containing test agent diluted in DMSO. The final top concentration of test compound was 40 μM. […] Plates were incubated ×30 minutes at RT in low-airflow area, followed by incubation at 37° C. under 5% CO2 for 24 hours. Medium was aspirated from all wells of assay plates prior to fixation and permeabilization with ice cold (−20° C.) methanol (90 μL/well) for ten minutes. Plates were rinsed with PBS three times on BioTek ELx405. PBS was removed with a final aspiration, and Odyssey blocking buffer (50 μL/well) was added to each well and incubated for one hour at RT. Primary antibody solution was prepared (anti-trimethyl-MEKK2 at 1:600 dilution plus mouse anti-flag antibody at 1:10,000 dilution in diluent (Odyssey Blocking buffer+0.1% Tween 20)) and 20 μL per well was dispensed using the Multidrop Combi. Assay plates were then sealed with foil, and incubated overnight at 4° C. Plates were washed five times with PBS-Tween (1×) on Biotek ELx405 and blotted on paper towel to remove excess reagent.
First, the ratio for each well was determined by:
Each plate included fourteen control wells of DMSO only treatment (Minimum Inhibition) as well as fourteen control wells for maximum inhibition (Background). The average of the ratio values for each control type was calculated and used to determine the percent inhibition for each test well in the plate. Reference compound was serially diluted two-fold in DMSO for a total of nine test concentrations, beginning at 40 μM. Percent inhibition was calculated (below).
Non-linear regression curves were generated to calculate the IC50 and dose-response relationship using triplicate wells per concentration of compound.

SMYD3 [2] = target: T1, SMYD3; test: SMYD3 biochemical assay (SMYD3 enzyme assay on MEKK2 protein substrate, 3H-SAM scintillation proximity assay); conditions: read-out: SMYD3 Biochem IC50
In short: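 Native full-length human SMYD3, expressed in E. coli, was preincubated with compound for 30 min at room temperature in 25 mM Tris-Cl pH 8.0, 1 mM TCEP, 0.005% BSG and 0.005% Tween 20. ³H-SAM plus GST-MEKK2 then started the reaction. It was stopped with unlabeled SAM (100 uM final), and methylated MEKK2 was read by SPA.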

[3] = Table 3A, average of n = 1 to n = 50, read-out: SMYD3 cell IC50
[4] = Table 3A, average of n = 1 to n = 50

T1 sequence (Q9H7B4 whole entry): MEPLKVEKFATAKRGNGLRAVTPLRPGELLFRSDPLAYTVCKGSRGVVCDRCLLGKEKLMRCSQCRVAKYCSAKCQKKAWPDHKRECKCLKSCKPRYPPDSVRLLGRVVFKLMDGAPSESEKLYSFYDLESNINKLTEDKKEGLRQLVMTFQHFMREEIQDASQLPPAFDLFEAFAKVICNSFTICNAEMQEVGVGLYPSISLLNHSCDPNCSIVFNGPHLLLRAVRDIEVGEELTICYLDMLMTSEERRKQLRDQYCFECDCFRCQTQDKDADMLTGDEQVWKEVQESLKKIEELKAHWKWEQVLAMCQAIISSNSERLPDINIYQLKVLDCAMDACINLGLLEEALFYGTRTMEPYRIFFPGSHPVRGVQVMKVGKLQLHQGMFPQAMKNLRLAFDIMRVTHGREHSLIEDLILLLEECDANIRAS

SMILES | IC50 (SMYD3 [1]; [3]) [nM] | IC50 (SMYD3 [2]) [nM] | IC50 (SMYD3 [2]; [4]) [nM] | IC50 (SMYD3 [1]; read-out: SMYD3 Cell IC50) [nM]
O=C1Cc2cc(C(=O)N[C@H]3C[C@H]4CC[C@@H](C3)N4S(=O)(=O)CCN3CCCC3)ccc2N1 [compound 615, 2-oxo-N-((1R,3r,5S)-8-((2-(pyrrolidin-1-yl)ethyl)sulfonyl)-8-azabicyclo[3.2.1]octan-3-yl)indoline-5-carboxamide] | 761 | 49.7 | – | –
O=C(N[C@H]1C[C@H]2CC[C@@H](C1)N2S(=O)(=O)CC1CCNCC1)c1ccc2c(c1)OC(F)(F)O2 [compound 628, 2,2-difluoro-N-((1R,3r,5S)-8-((piperidin-4-ylmethyl)sulfonyl)-8-azabicyclo[3.2.1]octan-3-yl)benzo[d][1,3]dioxole-5-carboxamide] | 3620 | – | 232 | –
O=C1Cc2cc(C(=O)N[C@H]3C[C@H]4CC[C@@H](C3)N4S(=O)(=O)CC3CCNCC3)c(Cl)cc2N1 [compound 596, 6-chloro-2-oxo-N-((1R,3r,5S)-8-((piperidin-4-ylmethyl)sulfonyl)-8-azabicyclo[3.2.1]octan-3-yl)indoline-5-carboxamide] | 2660 | – | 3.6 | –
O=C1Cc2cc(C(=O)N[C@H]3C[C@H]4CC[C@@H](C3)N4S(=O)(=O)CC3CCCNC3)ccc2N1 (stereo partly drawn) [compound 590, 2-oxo-N-((1R,3r,5S)-8-((piperidin-3-ylmethyl)sulfonyl)-8-azabicyclo[3.2.1]octan-3-yl)indoline-5-carboxamide] | 768 | 2.14 | – | –
C[C@@H](N)CC(=O)N[C@H]1CC[C@H](NC(=O)c2ccc3c(c2)CC(=O)N3)CC1 [compound 453, N-((1r,4r)-4-((R)-3-aminobutanamido)cyclohexyl)-2-oxoindoline-5-carboxamide] | – | 260 | – | > 40000
C[C@H]1CC(NC(=O)c2ccc3c(c2)CC(=O)N3)CCN1S(=O)(=O)c1ccc(C(C)(C)N)cc1 (stereo partly drawn) [compound 584, N-((2S)-1-((4-(2-aminopropan-2-yl)phenyl)sulfonyl)-2-methylpiperidin-4-yl)-2-oxoindoline-5-carboxamide] | 653 | – | 1.47 | –
C[C@H]1C[C@@H](NC(=O)c2cc3c(cc2Cl)NC(=O)C3)CCN1S(=O)(=O)N1CCC(N)CC1 [compound 582, N-((2S,4S)-1-((4-aminopiperidin-1-yl)sulfonyl)-2-methylpiperidin-4-yl)-6-chloro-2-oxoindoline-5-carboxamide] | 814 | – | 0.98 | –
C[C@H]1C[C@@H](NC(=O)c2cc3c(cc2Cl)NC(=O)C3)CCN1S(=O)(=O)c1ccc(C(C)(C)N)cc1 [compound 588, N-((2S,4S)-1-((4-(2-aminopropan-2-yl)phenyl)sulfonyl)-2-methylpiperidin-4-yl)-6-chloro-2-oxoindoline-5-carboxamide] | 356 | – | 1.98 | –
N[C@H]1CC[C@H](S(=O)(=O)N2[C@@H]3CC[C@H]2C[C@@H](NC(=O)c2cc4c(cc2Cl)NC(=O)C4)C3)CC1 [compound 583, N-((1R,3R,5S)-8-(((1r,4R)-4-aminocyclohexyl)sulfonyl)-8-azabicyclo[3.2.1]octan-3-yl)-6-chloro-2-oxoindoline-5-carboxamide] | 1510 | – | 1.1 | –
C[C@H]1C[C@H](NC(=O)c2nnc(C3CC3)s2)CCN1S(=O)(=O)N1CCC(N)CC1 [compound 631, N-((2S,4R)-1-((4-aminopiperidin-1-yl)sulfonyl)-2-methylpiperidin-4-yl)-5-cyclopropyl-1,3,4-thiadiazole-2-carboxamide] | 4900 | – | 470 | –
NCCC(=O)N[C@H]1CC[C@H](NC(=O)c2cc3c(cc2Cl)NC(=O)C3)CC1 [compound 491, N-((1r,4r)-4-(3-aminopropanamido)cyclohexyl)-6-chloro-2-oxoindoline-5-carboxamide] | – | 150 | – | > 40000
N[C@H]1CC[C@H](S(=O)(=O)N2[C@@H]3CC[C@H]2C[C@@H](NC(=O)c2ccc4c(c2)CC(=O)N4)C3)CC1 [compound 575, N-((1R,3R,5S)-8-(((1r,4R)-4-aminocyclohexyl)sulfonyl)-8-azabicyclo[3.2.1]octan-3-yl)-2-oxoindoline-5-carboxamide] | 2170 | 0.44 | – | –
C[C@@H]1CN(S(=O)(=O)N2CCC(N)CC2)CC[C@H]1NC(=O)c1cc2c(cc1Cl)NC(=O)C2 [compound 608, N-((3R,4R)-1-((4-aminopiperidin-1-yl)sulfonyl)-3-methylpiperidin-4-yl)-6-chloro-2-oxoindoline-5-carboxamide] | 6240 | – | 21.4 | –
O=C1Cc2cc(C(=O)N[C@H]3C[C@H]4CC[C@@H](C3)N4S(=O)(=O)CC3CCN(CCCO)CC3)ccc2N1 [compound 581, N-((1R,3r,5S)-8-(((1-(3-hydroxypropyl)piperidin-4-yl)methyl)sulfonyl)-8-azabicyclo[3.2.1]octan-3-yl)-2-oxoindoline-5-carboxamide] | 1670 | – | 0.95 | –
N[C@H]1CC[C@H](C(=O)N2[C@@H]3CC[C@H]2C[C@@H](NC(=O)c2ccc4c(c2)CC(=O)N4)C3)CC1 [compound 638, N-((1R,3R,5S)-8-((1r,4R)-4-aminocyclohexane-1-carbonyl)-8-azabicyclo[3.2.1]octan-3-yl)-2-oxoindoline-5-carboxamide] | ≥ 10000 | – | 962 | –
CC(C)(N)c1ccc(S(=O)(=O)N2[C@@H]3CC[C@H]2C[C@@H](NC(=O)c2cc4c(cc2Cl)NC(=O)C4)C3)cc1 [compound 613, N-((1R,3r,5S)-8-((4-(2-aminopropan-2-yl)phenyl)sulfonyl)-8-azabicyclo[3.2.1]octan-3-yl)-6-chloro-2-oxoindoline-5-carboxamide] | 1770 | – | 37.1 | –
O=C1Cc2cc(C(=O)N[C@H]3C[C@H]4CC[C@@H](C3)N4S(=O)(=O)CC3CCNCC3)ccc2N1 [compound 597, 2-oxo-N-((1R,3r,5S)-8-((piperidin-4-ylmethyl)sulfonyl)-8-azabicyclo[3.2.1]octan-3-yl)indoline-5-carboxamide] | 3440 | – | 3.98 | –
O=C1Cc2cc(C(=O)N[C@H]3C[C@H]4CC[C@@H](C3)N4S(=O)(=O)C[C@H]3CCCNC3)c(Cl)cc2N1 [compound 598, 6-chloro-2-oxo-N-((1R,3S,5S)-8-((((S)-piperidin-3-yl)methyl)sulfonyl)-8-azabicyclo[3.2.1]octan-3-yl)indoline-5-carboxamide] | 1270 | – | 4.12 | –
CC(=O)Nc1ccc(S(=O)(=O)N2CCC(NC(=O)c3ccc4c(c3)CC(=O)N4)CC2)cc1 [compound 643, N-(1-((4-acetamidophenyl)sulfonyl)piperidin-4-yl)-2-oxoindoline-5-carboxamide] | ≥ 10000 | – | 16900 | –
NC1CCC(S(=O)(=O)N2[C@@H]3CC[C@H]2C[C@@H](NC(=O)c2ccc4c(c2)OC(F)(F)O4)C3)CC1 (stereo partly drawn) [Cpd. No. 622, N-((1R,3r,5S)-8-(4-aminocyclohexylsulfonyl)-8-aza-bicyclo[3.2.1]octan-3-yl)-2,2-difluorobenzo[d][1,3]dioxole-5-carboxamide Trifluoroacetate] | 1080 | – | 131 | –
O=C1Cc2cc(C(=O)NC3CCN(S(=O)(=O)CC4CCNCC4)CC3)ccc2N1 [compound 620, 2-oxo-N-[1-[(piperidin-4-ylmethane)sulfonyl]piperidin-4-yl]-2,3-dihydro-1H-indole-5-carboxamide Trifluoroacetate] | ≥ 10000 | – | 68.2 | –

Source: patent US10266526B2, “Substituted 1,2,3-triazoles as SMYD inhibitors for treating cancer” (EPIZYME, INC., priority 2014, dated 2019)
